Results from article PMC8906351 (Pharmaceutical research, 2021).
Structures can show the parent of a compound that is named as a salt.

Assays:
[1] = tested on: [^14C]phenytoin efflux across the rat BBB; experiment: BEI inhibition study: pre-administration of compounds into rat Par2 region; assay type: in vivo; details: for effect of pre-administration on [14C]phenytoin BEI (in words): 20 mM desipramine, probenecid, MK-571, 5 mM quinidine, 4 mM verapamil, 500 μM prazosin, 10 mM methotrexate, DHEAS, PSC833
[2] = tested on: MCT8; details: concentration of 1 mM; cited from earlier work
[3] = Brain efflux index; details: rat
[4] = adult rats; brain uptake index; cited from earlier work
[5] = Brain efflux index; assay type: in vivo, mouse
[6] = tested on: P-glycoprotein (P-gp); experiment: In situ brain perfusion in wild-type and mdr1a/1b knockout mice; assay type: in vivo, mouse; details: [14C]phenytoin 2.73 μM; perfusion 2.5 mL/min for 2 min
[7] = in vivo; details: rat, not told
[8] = rat, 0.01 uCi

Q: For `O=C1OC(c2ccc(O)c(S(=O)(=O)O)c2)(c2ccc(O)c(S(=O)(=O)O)c2)c2c(Br)c(Br)c(Br)c(Br)c21` [BSP, Bromosulfophthalein], which “decrease of [14C]phenytoin BEI” value ([1]; rat, 30 min, pre-administration of 20 mM) is on record?
A: 82%

Q: What about the “inhibition of MCT8-mediated transport of the other substrates” value [2] of the same compound?
A: more than 50%

Q: Which “BEI (%)” value ([1]; 0.5 h, 20000 µM) does the source give for `CNCCCN1c2ccccc2CCc2ccccc21` [Desipramine, desipramine hydrochloride] here?
A: 28.4 ± 20.7%

Q: What about the “effect of pre-administration on [14C]phenytoin BEI (in words)” value (from here on “effect of pre-administration”) ([1]; rat, 30 min) of the same compound?
A: significantly decreased

Q: And the “inhibition of MCT8-mediated transport of the other substrates” value [2]?
A: more than 50%

Q: Which “effect of pre-administration” value ([1]; rat, 30 min) does the source give for `CN(C)C(=O)CCSC(SCCC(=O)O)c1cccc(/C=C/c2ccc3ccc(Cl)cc3n2)c1` (centres unmarked) [MK-571] here?
A: not significantly altered

Q: For `CN(Cc1cnc2nc(N)nc(N)c2n1)c1ccc(C(=O)N[C@@H](CCC(=O)O)C(=O)O)cc1` [Methotrexate, methotrexate], which “BEI (%)” value ([1]; 0.5 h, 10000 µM) is on record?
A: 67.3 ± 16.7%

Q: And the “effect of pre-administration” value ([1]; rat, 30 min)?
A: not significantly altered

Q: Which “effect of pre-administration” value ([1]; rat, 30 min) does the source give for `C/C=C/C[C@@H](C)C(=O)[C@H]1C(=O)N[C@@H](C(C)C)C(=O)N(C)CC(=O)N(C)[C@@H](CC(C)C)C(=O)N[C@@H](C(C)C)C(=O)N(C)[C@@H](CC(C)C)C(=O)N[C@@H](C)C(=O)N[C@H](C)C(=O)N(C)[C@@H](CC(C)C)C(=O)N(C)[C@@H](CC(C)C)C(=O)N(C)[C@@H](C(C)C)C(=O)N1C` [PSC833] here?
A: did not alter

Q: Which “effect of pre-administration” value ([1]; rat, 30 min) does the source give for `COc1cc2nc(N3CCN(C(=O)c4ccco4)CC3)nc(N)c2cc1OC` [Prazosin, prazosin] here?
A: not significantly altered

Q: And the “BEI (%)” value ([1]; rat, 30 min, compound 0.5 mM pre-administered, control 64.1 ± 12.9)?
A: 59.4 ± 8.5%

Q: Which “BEI (%)” value ([1]; 0.5 h, 20000 µM) does the source give for `CCCN(CCC)S(=O)(=O)c1ccc(C(=O)O)cc1` [Probenecid, probenecid] here?
A: 56.5 ± 24.9%

Q: And the “effect of pre-administration” value ([1]; rat, 30 min)?
A: not significantly altered

Q: Which results are given for `C=C[C@H]1C[N@@]2CC[C@H]1C[C@@H]2[C@@H](O)c1ccnc2ccc(OC)cc12` [Quinidine, quinidine]?
A: BEI (%) ([1]; 0.5 h, 5000 µM): 50.5 ± 13.1%; effect of pre-administration on [14C]phenytoin BEI (in words) ([1]; rat, 30 min): not significantly altered

Q: With `O=C1NC(=O)C(c2ccccc2)(c2ccccc2)N1` [phenytoin, 5,5-diphenylhydantoin] as the compound, how does the “elimination clearance relative to influx clearance” value ([3]; 177 vs 64 μL/(min·g brain) of Cornford et al.) read?
A: 2.8 fold

Q: What about the “elimination clearance across the BBB” value ([3]; from kel, bbb and Vd, brain) of the same compound?
A: 177 ±20 μL/(mim•g brain)

Q: What about the blood-to-brain influx clearance [4] of the same compound?
A: 64 μL/(min·g brain)

Q: And the “100 − BEI value of [14C]phenytoin compared to control” value ([1]; rat, 30 min, pre-administration of 1 mM unlabeled phenytoin)?
A: significantly increased

Q: What about the “brain elimination rate constant kel, BBB” value ([5]; mice, [14C]phenytoin 1.15 mM, 0.3 μL injected into S2 region) of the same compound?
A: 0.0223 ± 0.0075 min⁻¹

Q: What about the “half-life t1/2 in the brain” value ([5]; mice, [14C]phenytoin injected into S2 region) of the same compound?
A: 31.1 ± 10.8 min

Q: What about the half-life ([5]; mouse, brain (ipsilateral hemisphere), 0.019 μCi/0.3 μL (= 1.15 mM)) of the same compound?
A: 31 min

Q: What about the “Kin value, wild-type vs mdr1a/1b knockout mice” value [6] of the same compound?
A: not significantly different

Q: And the half-life [7]?
A: 17 min

Q: And the “elimination rate constant kel, bbb” value ([8]; in vivo)?
A: 0.0413 ± 46 min⁻¹

Q: What about the “half-life t1/2 of brain efflux” value ([8]; not told) of the same compound?
A: 16.8 ± 1.9 min
